Target: Translocator protein (Rattus norvegicus, UniProt P16257)
Assay: Binding affinity constant for peripheral (mitochondrial) Benzodiazepine receptor

Sequence of Translocator protein (P16257 whole entry, looked up): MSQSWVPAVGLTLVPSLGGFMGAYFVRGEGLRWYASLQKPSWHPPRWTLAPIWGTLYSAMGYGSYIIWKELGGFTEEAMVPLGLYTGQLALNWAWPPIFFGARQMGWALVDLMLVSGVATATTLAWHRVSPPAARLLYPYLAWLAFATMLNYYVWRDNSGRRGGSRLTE

SMILES | Ki | Kd
C1=C(c2ccccc2)Sc2ccccc2-n2cccc21 | 3150 nM | 
CC(=O)OC1=C(c2ccc(Cl)cc2)Sc2ccccc2-n2cccc21 | 30 nM | 
CN1CCN=C(c2ccccc2)c2cc(Cl)ccc21 [MEDAZEPAM] |  | > 10 nM
COc1ccc(C2=C(OS(C)(=O)=O)c3cccn3-c3ccccc3S2)cc1 | 95 nM | 
COc1ccc(C2=C(OC(=O)c3cccnc3)c3cccn3-c3ccccc3S2)cc1 | > 10 nM | 
COc1ccc(C2=C(OC(=O)c3cc(OC)c(OC)c(OC)c3)c3cccn3-c3cc(Cl)ccc3S2)cc1 | > 10 nM | 
CN(C)C(=O)OC1=C(c2ccccc2)Sc2ccccc2-n2cccc21 | 9 nM | 
COC1=C(c2ccccc2)Sc2ccccc2-n2cccc21 | 7000 nM | 

From ChEMBL document CHEMBL1128197 (J Med Chem, 1995)
